Test results taken from US9675625B2, “Medicament comprising recombinant antibody against chemokine receptor CCR4” (KYOWA HAKKO KIRIN CO., LTD., priority 2003, dated 2017).
Several values for one entry are separate records, joined by “and”; a condition that tells them apart may be missing. Equal values may be shown once.

Key:
CCRF-CEM cells [1] = experiment: antitumor effect of KM 2760 and cyclophosphamide in combination, CCRF-CEM cells grafted in nude mouse; format: in vivo, Balb/c nude mouse; conditions: Day 4; KM 2760 800 μg per mouse Day 0 and Day 4; CPA 65 mg/kg Day 0; tail vein
Method: CCRF-CEM cells (human T cell leukemia cell line) were suspended in RPMI 1640 medium (Gibco BRL) at a concentration of 2×10^8 cells/mL, and 100 μL of the suspension was grafted intradermally in the right flank of Balb/c nude mice (Nippon Crea, male). On Day 18 after the cell grafting, a diameter of a tumor was measured with calipers, and a tumor volume was calculated using formula 2 in Example 2.
Individuals having the tumor volume within the range of 116 to 349 mm^3 (on average 219 mm^3) were selected, and grouped such that the average tumor volume to be almost the same. Each of the following agent A to D was administered to the mice. Incidentally, the grouping day was defined as Day 0.
The experiment was conducted with groups each consisting of five mice. Each of the agents was diluted with a physiological saline (Otsuka Seiyaku), and the diluent was administered from the tail vein. On Day 4, the tumor volume was measured. The antitumor effect was evaluated by comparing an average values of a tumor volume change (V/V0) on each measurement day when the tumor volume on Day 0 in each group was defined as V0.

CCRF-CEM cells [2] = experiment: antitumor effect of KM 2760 and Methotrexate in combination, CCRF-CEM cells grafted in nude mouse; format: in vivo, Balb/c nude mouse; conditions: Day 7; KM 2760 800 μg per mouse Day 0 and Day 4; MTX 15 mg/kg Day 0 to Day 4; tail vein
Method: (§1) CCRF-CEM cells (human T cell leukemia cell line) were suspended in RPMI 1640 medium (Gibco BRL) at a concentration of 2×10^8 cells/mL, and 100 μL of the suspension was grafted into the ventral skin of Balb/c nude mice (CLEA Japan Inc. male). On Day 17 after the cell grafting, a diameter of a tumor was measured with calipers, and a tumor volume was calculated using formula 2 in Example 2.
(§2) Individuals having the tumor volume within the range of 121 to 348 mm^3 (on average 195 mm^3) were selected, and grouped such that the average tumor volume to be almost the same. Each of the following agents A to D was administered to the mice. Incidentally, the grouping day was defined as Day 0.
(§3) B. Group of administering KM 2760 alone: 800 μg of KM2760 was administered per mouse on Day 0 and Day 4.
C. Group of administering Methotrexate (hereinafter referred to as MTX; Methotrexate injection solution, Nippon Weisledary K.K.) alone: 15 mg/kg of MTX was administered per mouse for 5 days from Day 0 to Day 4. […]
The experiment was conducted with groups each consisting of five mice. […] On Day 7, the tumor volume was measured. The antitumor effect was evaluated by comparing average values of a tumor volume change (V/V0) when the tumor volume on Day 0 in each group was defined as V0.

CCRF-CEM cells [3] = experiment: antitumor effect of KM 2760 and vincristine in combination, CCRF-CEM cells grafted in nude mouse; format: in vivo, Balb/c nude mouse; conditions: Day 10; KM 2760 800 μg per mouse Day 0 and Day 4; VCR 0.55 mg/kg Day 0; tail vein
CCRF-CEM cells [4] = experiment: antitumor effect of KM 2760 and etoposide in combination, CCRF-CEM cells grafted in nude mouse; format: in vivo, Balb/c nude mouse; conditions: Day 7; KM 2760 800 μg per mouse Day 0 and Day 4; VP-16 10 mg/kg Day 0 to Day 4; tail vein
Method: as §1, with “(Nippon Crea,” for “(CLEA Japan Inc.”
as §2, with “range of from 121 to” for “range of 121 to”, “D was then administered to” for “D was administered to”
as §3
C. Group of administering etoposide (hereinafter referred to as VP-16; Lastet injection, Nippon Kayaku Co., Ltd.) alone: 10 mg/kg of VP-16 was administered per mouse for 5 days from Day 0 to Day 4. […]
The experiment was conducted with groups each consisting of five mice. […] On Day 7, the tumor volume was measured. The antitumor effect was evaluated by comparing average values of a tumor volume change (V/V0) on Day 7 when the tumor volume on Day 0 in each group was defined as V0.

CCR4/EL4 cells [5] = experiment: antitumor effect of KM 2760 and IFN-α in combination, CCR4/EL4 cells grafted into tail vein of C57BL/6 mice, liver weight ratio; format: in vivo, C57BL/6 mouse
Method: CCR4/EL4 cells were suspended in RPMI 1640 medium (manufactured by Gibco BRL) at a concentration of 5×10^5 cells/mL, and 100 μl of the suspension was grafted into the tail vein of C57BL/6 mice (CLEA Japan Inc., male, 8 weeks old). Further, mice were grouped into A to D, and each of the agents A to D were administered to the mice. Incidentally, the day on which the tumor was grafted was defined as Day 0.
B. Group of administering IFN-α alone: 5×10^4 units of IFN-α (Universal type I interferon, manufactured by PBL Biomedical Laboratories) was intravenously administered per mouse once a day for 5 days from Day 1 to Day 5.
The experiment was conducted with group A consisting of 7 mice and groups B, C and D each consisting of 6 mice. […] The weight of all mice was measured on Day 14. After etherization and exsanguination, mice were brought to euthanasia by dislocation of the cervical spine. The liver was extracted, and the weight of the liver was then measured. A ratio of the liver weight to the weight of each individual (hereinafter referred to as a weight ration of a liver) was calculated by percentage.
The antitumor effect was evaluated by comparing the liver weight ratio (average value of six mice) of untreated healthy mice measured simultaneously and the liver weight ratio of each group increased by metastasis of tumor cells.
Further, the residual amount of tumor cells in the liver in each group was calculated as a T/C value using the following formula. T/C=(average values of a weight ration of a liver of each group−average value of a weight ration of a liver of an untreated mouse)/(average value of a weight ration of a liver of a negative control group−average value of a weight ration of a liver of an untreated mouse) (Formula 4)

CCR4/EL4 cells [6] = experiment: antitumor effect of KM 2760 and G-CSF in combination, CCR4/EL4 cells grafted into ventral skin of C57BL/6 mice; format: in vivo, C57BL/6 mouse
Method: CCR4/EL4 cells (WO 01/64754) were suspended, in RPMI 1640 medium (Gibco BRL) at a concentration of 1×10^6 cells/mL, and 100 μL of the suspension was grafted into the right ventral skin of C57BL/6 mice (Nippon Crea, male, 8 weeks old). After, mice were grouped into A to D, each of the agents A to D were administered to each mouse. Incidentally, the day on which the tumor was grafted was defined as Day 0.
B. Group of administering KM 2760 alone: 100 μg of KM2760 was intravenously administered per mouse on Day 0 and Day 4.
C. Group of administering G-CSF alone: 10 μg of G-CSF (Neuup Injection 100, manufactured by Kyowa Hakko Kogyo Co., Ltd.) was subcutaneously administered per mouse once a day for 10 days from 4 days before the tumor grafting (hereinafter referred to as Day-4) to Day 5.
The experiment was conducted with group A consisting of 10 mice and groups B, C and D each consisting of 7 mice. […] Each of the diluent was administered at 100 μL. A diameter of a tumor was measured with calipers chronologically from Day 0 of each group. A tumor volume was calculated using formula 2 in Example 2.
Since the tumor death of the mouse was started in group A from Day 17 on, the evaluation of the tumor volume was finished on Day 14.
The antitumor effect (T/C value) in each group was evaluated by calculation using the following formula 3 for comparison between the average value of the tumor volume in group A and the average values of the tumor volume in each group on the final evaluation day (Day 14). (T/C value)=(average value of tumor volume in each group on Day 14)/average value of tumor volume in group A on Day 14) (Formula 3)

CCR4/EL4 cells [7] = tested on: CCR4/EL4 cells
Method: CCR4/EL4 cells (WO 01/64754) were suspended in RPMI 1640 medium (manufactured by Gibco BRL) at a concentration of 1×10^5 cells/mL, and 200 μL of the suspension was grafted into the peritoneal cavity of C57BL/6 mice (CLEA Japan Inc., male, 8 weeks old). After, mice was grouped into A to D, and each of the agents A to D was administered to each mouse. The day on which the tumor was grafted was defined as Day 0.
B. Group of administering M-CSF alone: 100 μg of M-CSF (Leucoprol, manufactured by Kyowa Hakko Kogyo Co., Ltd.) was intraperitoneally administered per mouse twice a day from Day-3 to Day-1 and once a day on Day 0, seven times in total.
The experiment was conducted with groups each consisting of 8 mice. […] The antitumor effect was evaluated by a ratio of average values of the number of survival days of mice in each group to an average value of the number of survival days of mice in the negative control group (hereinafter referred to as a life prolongation ratio).

[8] = KM 2760 50 μg i.p. Day 0, M-CSF 100 μg i.p. seven times

O=P1(N(CCCl)CCCl)NCCCO1 (stereo not drawn) [CPA, cyclophosphamide, reference compound]
T/C (V/V0 of group divided by V/V0 of negative control group) (CCRF-CEM cells [1]): 0.48

CN(Cc1cnc2nc(N)nc(N)c2n1)c1ccc(C(=O)N[C@@H](CCC(=O)O)C(=O)O)cc1 [MTX, Methotrexate, reference compound]
T/C (V/V0 of group divided by V/V0 of negative control group) (CCRF-CEM cells [2]): 0.06

CC[C@]1(O)C[C@H]2CN(CCc3c([nH]c4ccccc34)[C@@](C(=O)OC)(c3cc4c(cc3OC)N(C=O)[C@H]3[C@@](O)(C(=O)OC)[C@H](OC(C)=O)[C@]5(CC)C=CCN6CC[C@]43[C@@H]65)C2)C1 [VCR, vincristine, reference compound]
T/C (V/V0 of group divided by V/V0 of negative control group) (CCRF-CEM cells [3]): 0.49

COc1cc([C@@H]2c3cc4c(cc3[C@@H](O[C@@H]3O[C@@H]5CO[C@@H](C)O[C@H]5[C@H](O)[C@H]3O)[C@H]3COC(=O)[C@H]23)OCO4)cc(OC)c1O [VP-16, etoposide, reference compound]
T/C (V/V0 of group divided by V/V0 of negative control group) (CCRF-CEM cells [4]): 0.71

IFN-α
T/C value (residual amount of tumor cells in the liver, from liver weight ratio) (CCR4/EL4 cells [5]; Day 14, KM 2760 0.5 μg per mouse i.v. Day 1 and Day 5, IFN-α 5×10^4 units per mouse i.v. Day 1 to Day 5): 0.48
antitumor effect compared to untreated group A (liver weight ratio) (CCR4/EL4 cells [5]; FIG. 7, Day 14): low

B1: G-CSF: G-CSF (Neuup Injection 100, manufactured by Kyowa Hakko Kogyo Co., Ltd.) (protein, UniProt P09919 31-207, looked up)
Granulocyte …: TPLGPASSLPQSFLLKCLEQVRKIQGDGAALQEKLVSECATYKLCHPEELVLLGHSLGIPWAPLSSCPSQALQLAGCLSQLHSGLFLYQGLLQALEGISPELGPTLDTLQLDVADFATTIWQQMEELGMAPALQPTQGAMPAFASAFQRRAGGVLVASHLQSFLEVSYRVLRHLAQP
modifications: nartograstim
T/C value (average tumor volume of group / group A) (CCR4/EL4 cells [6]; Day 14, KM 2760 100 μg per mouse i.v. Day 0 and Day 4, G-CSF 10 μg per mouse s.c. once a day Day-4 to Day 5): 0.63
antitumor effect compared to untreated group A (tumor volume) (CCR4/EL4 cells [6]; FIG. 6, up to Day 14): low

B2: M-CSF: M-CSF (Leucoprol, manufactured by Kyowa Hakko Kogyo Co., Ltd.) (protein, UniProt P09603 33-554, looked up)
Macrophage colony-stimulating …: EEVSEYCSHMIGSGHLQSLQRLIDSQMETSCQITFEFVDQEQLKDPVCYLKKAFLLVQDIMEDTMRFRDNTPNAIAIVQLQELSLRLKSCFTKDYEEHDKACVRTFYETPLQLLEKVKNVFNETKNLLDKDWNIFSKNCNNSFAECSSQDVVTKPDCNCLYPKAIPSSDPASVSPHQPLAPSMAPVAGLTWEDSEGTEGSSLLPGEQPLHTVDPGSAKQRPPRSTCQSFEPPETPVVKDSTIGGSPQPRPSVGAFNPGMEDILDSAMGTNWVPEEASGEASEIPVPQGTELSPSRPGGGSMQTEPARPSNFLSASSPLPASAKGQQPADVTGTALPRVGPVRPTGQDWNHTPQKTDHPSALLRDPPEPGSPRISSLRPQGLSNPSTLSAQPQLSRSHSSGSVLPLGELEGRRSTRDRRSPAEPEGGPASEGAARPLPRFNSVPLTDTGHERQSEGSFSPQLQESVFHLLVPSVILVLLAVGGLLFYRWRRRSHQEPQRADSPLEQPEGSPLTQDDRQVELPV
Number of survival days (each mouse) (CCR4/EL4 cells [7]; 8 mice per group, KM 2760 50 μg per mouse i.p. Day 0, M-CSF 100 μg per mouse i.p. seven times Day-3 to Day 0, observation to Day 50): 17 days (2×) and 18 days (3×) and 19 days (2×) and 22 days
Average number of survival days (CCR4/EL4 cells [7]; [8]): 18.8 days
Life prolongation ratio (average survival days of group / negative control group) (CCR4/EL4 cells [7]; [8]): 0.974
antitumor effect in comparison with untreated Group A (survival) (CCR4/EL4 cells [7]; Table 7): no antitumor effect
